Reference: article PMC8230474, “Synthesis of Novel Acyl Derivatives of 3-(4,5,6,7-Tetrabromo-1H-benzimidazol-1-yl)propan-1-ols—Intracellular TBBi-Based CK2 Inhibitors with Proapoptotic Properties” (International Journal of Molecular Sciences, 2021)
Where two headings read alike, the source gives them in different places.

Legend:
MCF-7 cells [1] = test: Cell cycle progression by flow cytometry, MCF-7; assay type: cell-based, human; conditions: MCF-7, 72 h, compound at its EC50
MCF-7 cells [2] = test: MTT viability assay, MCF-7; assay type: cell-based; conditions: Homo sapiens
Protocol: (§1) To test the anti-cancer effect of the TBBi derivatives, we treated the MCF-7 and MDA-MB-231 cells with the newly synthesized esters and previously reported compounds [34, 57] at the concentration range of 3.125 to 200 µM for 24 h, 48 h and 72 h. Additionally, the range of concentrations was extended by additional lower concentrations in MCF-7 for compound 4 with the minimum concentration of 0.195 µM. […] The EC50 values, describing the half maximal effective concentration of each tested compound, were calculated and are summarized in Table 2. […] We observed that the EC50 values increase in both cell lines with the elongation of fatty acids chain length in the tested compounds, thus strongly correlating with the decrease of their solubility in biological media as characterized by logS parameter (Table 2). The second reason for the decreased biological activity of the longer-chain aliphatic esters might be attributed to their greater resistance toward intracellular hydrolysis, which directly influences the slower release of the active form of the corresponding CK2 inhibitors. […] However, none of the tested compounds, except for compound 5, decreased the viability of both cell lines in a time-dependent manner (Figure 4).
(§2) MCF-7 and MDA-MB-231 were cultured in high-glucose Dulbecco’s modified Eagle medium (DMEM, Lonza, Basel, Switzerland) supplemented with 10% fetal bovine serum (FBS, EuroClone, Siziano, Italy)), 2 mM L-glutamine, and antibiotics (100 U/mL penicillin, 100 µg/mL streptomycin) (Sigma-Aldrich Chemical Company (St. Louis, MO, USA). Cells were grown in 75-cm^2 cell culture flasks (Sarstedt, Nümbrecht, Germany) in a humidified atmosphere of CO2/air (5%/95%) at 37 °C. All the experiments were performed in exponentially growing cultures. Stock solutions of the test compounds were prepared in DMSO and stored in −80 °C for a maximum of one month. For the cytotoxicity studies, stock solutions of the tested compounds were diluted 200-fold with the proper culture medium to obtain the final concentrations.
(§3) After incubation with the tested compounds, an MTT test was performed as described previously. Optical densities were measured at 570 nm using BioTek microplate reader (Winooski, VT, USA). All measurements were carried out in a minimum of three biological replicates.

MDA-MB-231 cells = test: MTT viability assay, MDA-MB-231; assay type: cell-based; conditions: Homo sapiens
Protocol: as §1, §2, §3

[3] = biological target: human CK2 catalytic subunit (CK2α) (Homo sapiens, UniProt P68400); test: Radiometric (P81 filter isotopic) kinase assay, CK2 catalytic subunit; assay type: biochemical; conditions: for remaining activity at 5 µM: 5 µM compound; for remaining activity at 5 µM / remaining activity at 10 µM: read-out: Residual Activity of the Enzyme CK2α; for remaining activity at 10 µM: 10 µM compound
PIM1 = PIM1 (Homo sapiens, UniProt P11309); test: Radiometric (P81 filter isotopic) kinase assay, PIM1; assay type: biochemical; conditions: for remaining activity at 5 µM: 5 µM compound; for remaining activity at 5 µM / remaining activity at 10 µM: read-out: Residual Activity of the Enzyme PIM1; for remaining activity at 10 µM: 10 µM compound; for Ki: calculated from IC50 by Cheng and Prusoff equation
[4] = biological target: CK2 holoenzyme (CK2 α2β2) (Homo sapiens, UniProt P68400); test: Radiometric (P81 filter isotopic) kinase assay, CK2 holoenzyme; assay type: biochemical; conditions: for remaining activity at 5 µM: 5 µM compound; for remaining activity at 5 µM / remaining activity at 10 µM: read-out: Residual Activity of the Enzyme CK2 α2β2; for remaining activity at 10 µM: 10 µM compound; for Ki: calculated from IC50 by Cheng and Prusoff equation
[5] = MCF7, 24 h, read-out: EC50 ± SD MCF-7
[6] = MCF7, 48 h, read-out: EC50 ± SD MCF-7
[7] = MCF7, 72 h, read-out: EC50 ± SD MCF-7
[8] = 24 h, read-out: EC50 ± SD MDA-MB-231
[9] = 48 h, read-out: EC50 ± SD MDA-MB-231
[10] = 72 h, read-out: EC50 ± SD MDA-MB-231
[11] = MCF7, 24 h, 48 h and 72 h, read-out: EC50 MCF-7
[12] = 24 h, 48 h and 72 h, read-out: EC50 MDA-MB-231

Sequence of CK2 holoenzyme (CK2 α2β2) (P68400 whole entry): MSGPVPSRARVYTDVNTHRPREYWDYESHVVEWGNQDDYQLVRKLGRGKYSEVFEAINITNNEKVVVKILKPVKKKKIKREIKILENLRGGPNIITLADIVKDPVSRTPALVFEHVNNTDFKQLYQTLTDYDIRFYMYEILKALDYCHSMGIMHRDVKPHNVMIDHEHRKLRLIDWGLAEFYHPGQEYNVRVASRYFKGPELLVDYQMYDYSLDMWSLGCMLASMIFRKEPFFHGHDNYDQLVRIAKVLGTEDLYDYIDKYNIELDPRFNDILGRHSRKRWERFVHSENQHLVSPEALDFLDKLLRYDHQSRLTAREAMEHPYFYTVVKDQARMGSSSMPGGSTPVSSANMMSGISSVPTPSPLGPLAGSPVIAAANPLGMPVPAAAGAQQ
Sequence of CK2 holoenzyme (CK2 α2β2) (P67870 whole entry partner): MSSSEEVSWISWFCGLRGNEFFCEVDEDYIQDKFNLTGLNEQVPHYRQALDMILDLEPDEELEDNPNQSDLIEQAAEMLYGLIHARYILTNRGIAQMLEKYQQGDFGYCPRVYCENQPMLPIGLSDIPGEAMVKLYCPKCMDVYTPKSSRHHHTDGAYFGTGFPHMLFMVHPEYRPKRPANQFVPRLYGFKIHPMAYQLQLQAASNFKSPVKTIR
Sequence of human CK2 catalytic subunit (CK2α) (P68400 whole entry): as the sequence (P68400 whole entry) above
Sequence of PIM1 (P11309 whole entry, species assumed): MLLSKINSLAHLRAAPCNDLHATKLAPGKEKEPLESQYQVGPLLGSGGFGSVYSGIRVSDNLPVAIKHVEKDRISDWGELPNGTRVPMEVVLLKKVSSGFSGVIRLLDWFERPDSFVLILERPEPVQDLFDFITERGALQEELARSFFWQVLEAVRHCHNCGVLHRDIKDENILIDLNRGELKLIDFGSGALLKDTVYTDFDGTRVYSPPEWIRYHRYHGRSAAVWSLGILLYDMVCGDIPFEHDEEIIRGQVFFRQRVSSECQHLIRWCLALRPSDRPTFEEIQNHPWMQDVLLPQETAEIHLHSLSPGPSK

Structure (SMILES)	cells in G1 (MCF-7 cells [1])	cells in G2M (MCF-7 cells [1])	cells in S (MCF-7 cells [1])	EC50 (MCF-7 cells [2]; [5])	EC50 (MCF-7 cells [2]; [6])	EC50 (MCF-7 cells [2]; [7])	EC50 (MDA-MB-231 cells; [8])	EC50 (MDA-MB-231 cells; [9])	EC50 (MDA-MB-231 cells; [10])	melting point	remaining activity at 5 µM [3]	remaining activity at 10 µM [3]	remaining activity at 5 µM (PIM1)	remaining activity at 10 µM (PIM1)	Ki (PIM1)	remaining activity at 5 µM [4]	remaining activity at 10 µM [4]	also measured
Cc1nc2c(Br)c(Br)c(Br)c(Br)c2n1CCCO [Compound 5]	60.2%	13.5%	26.3%	17.6 ± 6.35 µM	16 ± 5.31 µM	4.9 ± 2.71 µM	57.8 ± 20.8 µM	21 ± 9.85 µM	9.99 ± 0.44 µM	227 to 230 °C	26.1 ± 3.5%	16.3 ± 1%	9.3 ± 2.6%	3.4 ± 0.3%	0.15 ± 0.08 µM	14.2 ± 2%	9.1 ± 0.6%	Ki ([3]; calculated from IC50 by Cheng and Prusoff equation): 0.2 ± 0.08 µM; Ki [4]: 0.05 ± 0.01 µM
Cc1nc2c(Br)c(Br)c(Br)c(Br)c2[nH]1 [Compound 4, 4,5,6,7-tetrabromo-2-methyl-1H-benzimidazole, reference compound]	53.6%	16.7%	29.7%	4.12 ± 0.03 µM	4.2 ± 0.29 µM	2.66 ± 0.19 µM	12.8 ± 6.6 µM	5.35 ± 0.82 µM	4.73 ± 0.48 µM		18.8 ± 1.1%	7.7 ± 3.3%	8 ± 0.9%	4.5 ± 0.2%	0.21 ± 0.02 µM	6 ± 0.9%	2.9 ± 0.2%	Ki [4]: 0.11 ± 0.04 µM
O=C(O)c1ccc2c(c1)nc(Nc1cccc(Cl)c1)c1ccncc12 [CX-4945, silmitasertib, reference compound]	33.6%	22.0%	44.4%								0%	0%	2.3 ± 0.1%			0%	0%	
OCCCn1cnc2c(Br)c(Br)c(Br)c(Br)c21 [Compound 2]	51.0%	14.4%	34.6%	24.1 ± 1.39 µM	20.1 ± 1.36 µM	19.6 ± 1.68 µM	54.6 ± 4.32 µM	27.2 ± 0.49 µM	20.6 ± 0.86 µM				17.2 ± 2.3%	10.1 ± 1%	0.42 ± 0.02 µM			
CCCC(=O)OCCCn1cnc2c(Br)c(Br)c(Br)c(Br)c21 [Compound 3a, (4,5,6,7-Tetrabromo-1H-benzimidazol-1-yl)propyl butanoate]	57.8%	13.8%	28.4%	29.3 ± 1.24 µM	23.1 ± 0.77 µM	21.5 ± 1.86 µM	40.8 ± 1.58 µM	27.8 ± 1.31 µM	24.5 ± 0.48 µM	96 to 97 °C	71 ± 9.5%	59.1 ± 3.7%	65 ± 2.8%	24.4 ± 0.9%	2.23 ± 0.07 µM	58 ± 4%	34.8 ± 3.4%	
CCCCCCCCCCCC(=O)OCCCn1cnc2c(Br)c(Br)c(Br)c(Br)c21 [Compound 3d, 3-(4,5,6,7-Tetrabromo-1H-benzimidazol-1-yl)propyl dodecanoate]				> 100 µM	> 100 µM	> 100 µM	> 100 µM	> 100 µM	> 100 µM	59 to 60 °C								EC50 (MCF-7 cells [2]; [11]): > 100 µM; EC50 (MDA-MB-231 cells; [12]): > 100 µM
CCCCCCCCCCCC(=O)OCCCn1c(C)nc2c(Br)c(Br)c(Br)c(Br)c21 [Compound 6d, (4,5,6,7-Tetrabromo-2-methyl-1H-benzimidazol-1-yl)propyl dodecanoate]				> 100 µM	> 100 µM	> 100 µM	> 100 µM	> 100 µM	> 100 µM	69 to 70 °C								EC50 (MCF-7 cells [2]; [11]): > 100 µM; EC50 (MDA-MB-231 cells; [12]): > 100 µM
CCCCCC(=O)OCCCn1cnc2c(Br)c(Br)c(Br)c(Br)c21 [Compound 3b, 3-(4,5,6,7-Tetrabromo-1H-benzimidazol-1-yl)propyl hexanoate]	60.5%	12.2%	27.3%	39.6 ± 1.06 µM	28.4 ± 1.71 µM	24.8 ± 1.33 µM	95.6 ± 20.4 µM	32.2 ± 3.26 µM	27.3 ± 1.26 µM	65 to 67 °C	89.3 ± 8%	83 ± 13%	85 ± 0.1%	74.2 ± 11.2%		85.5 ± 8.3%	83.1 ± 7.5%	
